Results taken from patent publication US12152047B2, “Anti-cancer gold compounds” (Royal Melbourne Institute of Technology, priority 2019, dated 2024).
Where two headings read alike, the source gives them in different places.

Key:
[1] = MTT assay (in vitro cytotoxicity), HeK-293; assay type: cell-based; details: human, HEK-293 (normal) embryonic kidney cells, 48 h incubation, mean ± SD of three experiments
Protocol: (§1) For all the assays, unless otherwise mentioned, stock solutions of the metal compounds were freshly prepared in DMSO (10 mM) and 1% DMSO in complete medium was used as a control.
(§2) The MTT [3-(4,5-dimethylthiazol-2-yl)-2,5-diphenyltetrazolium bromide] assay is based on the conversion of a yellow coloured MTT solution to purple formazan crystals by the active mitochondrial dehydrogenases of viable cells. Thus, the intensity of the produced purple colour is proportional to the number of viable cells. The cells were seeded in 96 well plates depending on cellular doubling time and were treated with solutions of the metal compounds (100 μM, 10 μm, 1 μM, 0.1 μM, 0.01 μM) after overnight incubation. The cells were further incubated for 48 h and the medium containing the test compounds was removed before addition of 100 μL MTT solution (5 mg/mL) in serum-free medium. After 4 h incubation in the dark at 37° C., the excess MTT solution was removed from the wells and 100 μL of DMSO was added to each well to solubilise the formed formazan crystals. The absorbance of formazan solution from each well was recorded using a Spectramax micro titre plate reader at 570 and 630 nm. […] For all the assays, stock solutions of gold compounds were prepared in DMSO (10 mM) and the final treatment concentrations (100 μM-0.01 μM) were made in complete growth medium.

[2] = test system: HT-1080 (bone, fibrosarcoma) cancer cells; assay: MTT assay (in vitro cytotoxicity), HT-1080; assay type: cell-based; details: ratio to cisplatin
Protocol: as §1, §2

[3] = test system: PC3 (prostate) cancer cells; assay: MTT assay (in vitro cytotoxicity), PC3; assay type: cell-based; details: ratio to cisplatin
Protocol: as §1, §2

[4] = test system: HeLa (cervical) cancer cells; assay: MTT assay (in vitro cytotoxicity), HeLa; assay type: cell-based; details: ratio to cisplatin
Protocol: as §1, §2

[5] = test system: HeLa xenografts; assay: In vivo anti-tumour activity in mice xenograft model; set-up: species or system BALB/c Nude mice; details: 1 mg/kg intraperitoneal, 42 days, nude mice bearing HeLa xenografts
Protocol: The use of metal complexes or gold compounds in animal xenograft models has been previously described elsewhere for cervical cancer models or other tumour types. The efficacy of the newly synthesised novel gold compound in reducing tumour growth in cervical cancer models was tested as follows. […] Five-week-old female BALB/c Nude mice were used. HeLa tumour cells (5×10^6) resuspended in RPMI medium injected subcutaneously tumour cells in 100 μL of culture media using a 29-gauge insulin syringe into both ventral flanks, anterior to the hind leg. The mice were monitored twice daily for 48 hrs to determine if any unexpected adverse effects are observed. Tumours were allowed to establish to approximately 50 mm^3 (as determined using electronic callipers) and the mice were then randomly separated into three groups of 5.
From this stock solution, the final working concentrations for mice injections were prepared in PBS (Phosphate buffered saline, pH 7.4) with DMSO concentration not exceeding 3.6%.
Tumour volumes were measured 8 times during the 42-day period. All mice were culled after 42 days and the tumours were collected and weighed. All the animal experiments were performed in Biological Research Facility, Melbourne University according to the animal ethics number 1814422.

[6] = test system: cisplatin-resistant ovarian cancer cells (A2780Cis); assay: Dose dependent study, trypan blue assay, A2780Cis; assay type: cell-based; details: at 0.39 μM, 72 hours treatment
[7] = test system: PC3 prostate cancer cells; assay: Trypan blue assay, PC3; assay type: cell-based
[8] = test system: HT-29 colon cancer cells; assay: Trypan blue assay, HT-29; assay type: cell-based
Protocol: (§3) A Trypan blue assay was conducted to determine the cytotoxicity of certain compounds of the invention towards cisplatin-sensitive (A2780) and -resistant (A2780Cis) ovarian, prostate (PC3) and colon (HT-29) cancer cells.
(§4) In order to determine the toxicity of the compounds, 5×10^4 cells per well were seeded into 24 well plates and allowed to grow for 24 hours. The cells were then treated with increasing concentrations of the compounds for 72 hours. […] The gold complexes were dissolved in DMSO immediately prior to the experiments (5 mM stock solutions). 0.25% DMSO in complete medium served as vehicle control. All treatments were performed using molar concentrations and each well received 1 mL of treatment in cell culture media (RPMI) containing 10% FBS and 1% penicillin and streptomycin. After 72 hours of treatment, the media was collected from each well in separate tubes in order to include dead cells in the cell count. Cells from the plate were removed using 200 μL of 0.25% Trypsin-EDTA for 3 minutes at 37° C. Trypsin was neutralised with the media originally removed from the cells and centrifuged at 1200 rpm for 5 minutes. The supernatant was discarded and the cells were resuspended in 100 μL of fresh complete media. From this, 20 μL of cell suspension was removed, mixed with an equal volume of Trypan Blue and the cells were counted using a haemocytometer.

[9] = test system: A2780Cis cisplatin resistant ovarian cancer cells; assay: Trypan blue assay, A2780Cis; assay type: cell-based
Protocol: as §3, §4

[10] = test system: A2780 ovarian cancer cells; assay: Trypan blue assay, A2780; assay type: cell-based
Protocol: as §3, §4

Which IC50 at 48 h [1] does the source give for S=P(c1ccccc1)(c1ccccc1)c1cccc[c]1[Au][P+](c1ccccc1)(c1ccccc1)c1ccccc1 [Compound 2, [Au(PPh3){κC-2-C6H4P(S)Ph2}]] here?
The IC50 at 48 h was 5810 ± 350 nM.

For S=P(c1ccccc1)(c1ccccc1)c1cccc[c]1[Au][PH]12CN3CN(CN(C3)C1)C2 [Compound 1, [Au(PTA){κC-2-C6H4P(S)Ph2}]], which “higher cytotoxicity than cisplatin against bone cancer cells” value [2] is on record?
Its value is 7.8 fold.

What about the “higher cytotoxicity than cisplatin against prostate cancer cells” value [3] of the same compound?
The value was 3.5 fold.

And the IC50 at 48 h [1]?
The IC50 at 48 h was 380 ± 110 nM.

What about the “higher cytotoxicity than cisplatin towards cervical cancer cells” value [4] of the same compound?
Its value is “approximately 27 fold”.

And the “mouse death or body weight loss after treatment” value [5]?
The value was “no mouse death or body weight loss”.

Which “effect on cell viability” value [6] does the source give for COc1cc([C@@H]2c3cc4c(cc3[C@@H](O[C@@H]3O[C@@H]5CO[C@@H](C)O[C@H]5[C@H](O)[C@H]3O)[C@H]3COC(=O)[C@H]23)OCO4)cc(OC)c1O [etoposide] here?
The value was “no significant effect”.

Which IC50 [7] does the source give for CC(=O)OC[C@H]1O[C@@H]([S-])[C@H](OC(C)=O)[C@@H](OC(C)=O)[C@@H]1OC(C)=O.CCP(CC)CC.[Au+] [auranofin] here?
The IC50 was 440 ± 50 nM.

And the IC50 [8]?
Its IC50 is 510 nM.

And the IC50 [9]?
Its IC50 is 710 ± 60 nM.

And the IC50 [10]?
Its IC50 is 80 ± 10 nM.

For N.N.[Cl][Pt][Cl] [Cisplatin], which “effect on cell viability” value [6] is on record?
The value was “no significant effect”.

And the IC50 ([8]; Trypan blue, 72 hours treatment, read-out: In vitro cytotoxicity IC50, HT-29)?
The IC50 was over 25000 nM.

What about the IC50 ([9]; Trypan blue, 72 hours treatment, read-out: In vitro cytotoxicity IC50, A2780Cis) of the same compound?
The IC50 was over 25000 nM.

And the IC50 ([10]; Trypan blue, 72 hours treatment, read-out: In vitro cytotoxicity IC50, A2780)?
The IC50 was 1400 ± 130 nM.

What about the tumour volume inhibition ([5]; compared to solvent control) of the same compound?
Its tumour volume inhibition is 29%.
